Patent US20230279482A1, “COMPOSITIONS, METHODS AND USES FOR QUANTIFYING TRANSCRIPTION AND BIOSENSING OF SMALL MOLECULES USING A NOVEL TYPE VI CRISPR-CAS ASSAY” (THE REGENTS OF THE UNIVERSITY OF COLORADO, A BODY CORPORATE, priority 2020, published 2023)
Like-named read-outs stand apart in the source and are kept apart here.

How the values were obtained:
[1] = target: T1, tetR (Escherichia coli, UniProt P04483); conditions: read-out: previously reported range; cited from earlier work
[2] = target: T1, tetR; experiment: biochemical
Experimental: In other exemplary methods, reactions with allosteric transcription factors (aTFs), ROSALIND reagent buffer (10× buffer containing, for assays contemplated herein, but not limited to: 400 mM Tris-HCl, pH 8.0, 200 mM NaCl, 20 mM spermidine, 100 mM DTT and 80 mM MgCl2) were used. The buffer was prepared fresh or stored as single-use aliquots at −80° C. […] The final concentration of the aTF monomers was either 2.5 μM tetR or 10 μM smtB. The master mix was incubated for 15 minutes at 37° C. which allows the aTFs to bind to the operator sequence.
In another exemplary method, bacterial transcription can be regulated by allosteric transcription factors (aTFs), such as activators or repressors, which have previously been used for small molecule detection. Another system (“ROSALIND”) enabled rapid detection of compounds via aTFs. […] The ROSALIND buffer system differs from the SPRINT or SHERLOCK buffer. Therefore, it was tested whether aTF-based ROSALIND reactions could be integrated with the Cas13a-based detection method. To simplify the system, the inorganic pyrophosphatase (IPPase) enzyme was first removed from the ROSALIND system. IPPase was used in transcription reactions to degrade pyrophosphate which was a reaction product of the RNA polymerase and can inhibit the reaction. […] Adaptions included reducing the concentrations of rNTP from 2.85 mM to 40 μM, DNA template from 25 to 15 nM, and T7 RNAP from 10 to 6.7 ng/μL.
The responses of the de-repressors tetR and smtB were measured with SPRINT.

[3] = target: T2, bacterial RNAP (Escherichia coli, UniProt P0A8V2); experiment: SPRINT rifampicin titration with constitutive promoter; format: biochemical, E. coli
Target sequence in this assay (P0A8V2 whole entry): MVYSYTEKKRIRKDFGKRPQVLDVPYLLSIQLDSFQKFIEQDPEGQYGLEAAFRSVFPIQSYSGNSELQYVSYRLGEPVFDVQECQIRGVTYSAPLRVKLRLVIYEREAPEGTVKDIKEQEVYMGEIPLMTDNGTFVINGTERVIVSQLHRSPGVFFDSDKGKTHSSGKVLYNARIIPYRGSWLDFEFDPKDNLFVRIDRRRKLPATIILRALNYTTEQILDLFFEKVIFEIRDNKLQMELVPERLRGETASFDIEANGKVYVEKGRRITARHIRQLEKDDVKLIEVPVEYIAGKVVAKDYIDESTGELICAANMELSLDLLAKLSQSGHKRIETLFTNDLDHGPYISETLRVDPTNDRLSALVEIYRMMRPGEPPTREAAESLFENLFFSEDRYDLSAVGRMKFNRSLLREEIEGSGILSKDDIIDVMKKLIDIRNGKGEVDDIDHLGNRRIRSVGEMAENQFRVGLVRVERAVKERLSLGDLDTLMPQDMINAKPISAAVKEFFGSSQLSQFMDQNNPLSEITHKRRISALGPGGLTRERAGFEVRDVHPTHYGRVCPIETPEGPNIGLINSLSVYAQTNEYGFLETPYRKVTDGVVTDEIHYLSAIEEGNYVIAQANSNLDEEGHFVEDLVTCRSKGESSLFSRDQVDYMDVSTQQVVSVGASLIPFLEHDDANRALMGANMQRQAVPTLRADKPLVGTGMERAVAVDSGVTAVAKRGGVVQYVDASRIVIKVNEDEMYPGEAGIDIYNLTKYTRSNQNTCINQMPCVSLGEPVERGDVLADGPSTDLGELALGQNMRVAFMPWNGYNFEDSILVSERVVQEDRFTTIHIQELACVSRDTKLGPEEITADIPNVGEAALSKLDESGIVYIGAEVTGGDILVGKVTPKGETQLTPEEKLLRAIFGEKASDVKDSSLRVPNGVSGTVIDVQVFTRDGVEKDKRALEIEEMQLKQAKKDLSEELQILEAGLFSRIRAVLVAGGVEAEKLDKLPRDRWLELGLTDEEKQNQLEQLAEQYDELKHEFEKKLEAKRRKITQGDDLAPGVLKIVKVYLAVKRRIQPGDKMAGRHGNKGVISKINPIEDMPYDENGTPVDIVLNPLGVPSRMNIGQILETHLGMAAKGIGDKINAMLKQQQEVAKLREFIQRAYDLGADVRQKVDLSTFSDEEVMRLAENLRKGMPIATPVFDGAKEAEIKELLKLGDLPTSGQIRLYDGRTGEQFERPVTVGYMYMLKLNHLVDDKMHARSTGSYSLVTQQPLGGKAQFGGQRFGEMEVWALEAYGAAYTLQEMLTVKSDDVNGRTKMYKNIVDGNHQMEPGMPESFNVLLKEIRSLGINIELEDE
Target sequence in this assay (P0A8T7 whole entry partner): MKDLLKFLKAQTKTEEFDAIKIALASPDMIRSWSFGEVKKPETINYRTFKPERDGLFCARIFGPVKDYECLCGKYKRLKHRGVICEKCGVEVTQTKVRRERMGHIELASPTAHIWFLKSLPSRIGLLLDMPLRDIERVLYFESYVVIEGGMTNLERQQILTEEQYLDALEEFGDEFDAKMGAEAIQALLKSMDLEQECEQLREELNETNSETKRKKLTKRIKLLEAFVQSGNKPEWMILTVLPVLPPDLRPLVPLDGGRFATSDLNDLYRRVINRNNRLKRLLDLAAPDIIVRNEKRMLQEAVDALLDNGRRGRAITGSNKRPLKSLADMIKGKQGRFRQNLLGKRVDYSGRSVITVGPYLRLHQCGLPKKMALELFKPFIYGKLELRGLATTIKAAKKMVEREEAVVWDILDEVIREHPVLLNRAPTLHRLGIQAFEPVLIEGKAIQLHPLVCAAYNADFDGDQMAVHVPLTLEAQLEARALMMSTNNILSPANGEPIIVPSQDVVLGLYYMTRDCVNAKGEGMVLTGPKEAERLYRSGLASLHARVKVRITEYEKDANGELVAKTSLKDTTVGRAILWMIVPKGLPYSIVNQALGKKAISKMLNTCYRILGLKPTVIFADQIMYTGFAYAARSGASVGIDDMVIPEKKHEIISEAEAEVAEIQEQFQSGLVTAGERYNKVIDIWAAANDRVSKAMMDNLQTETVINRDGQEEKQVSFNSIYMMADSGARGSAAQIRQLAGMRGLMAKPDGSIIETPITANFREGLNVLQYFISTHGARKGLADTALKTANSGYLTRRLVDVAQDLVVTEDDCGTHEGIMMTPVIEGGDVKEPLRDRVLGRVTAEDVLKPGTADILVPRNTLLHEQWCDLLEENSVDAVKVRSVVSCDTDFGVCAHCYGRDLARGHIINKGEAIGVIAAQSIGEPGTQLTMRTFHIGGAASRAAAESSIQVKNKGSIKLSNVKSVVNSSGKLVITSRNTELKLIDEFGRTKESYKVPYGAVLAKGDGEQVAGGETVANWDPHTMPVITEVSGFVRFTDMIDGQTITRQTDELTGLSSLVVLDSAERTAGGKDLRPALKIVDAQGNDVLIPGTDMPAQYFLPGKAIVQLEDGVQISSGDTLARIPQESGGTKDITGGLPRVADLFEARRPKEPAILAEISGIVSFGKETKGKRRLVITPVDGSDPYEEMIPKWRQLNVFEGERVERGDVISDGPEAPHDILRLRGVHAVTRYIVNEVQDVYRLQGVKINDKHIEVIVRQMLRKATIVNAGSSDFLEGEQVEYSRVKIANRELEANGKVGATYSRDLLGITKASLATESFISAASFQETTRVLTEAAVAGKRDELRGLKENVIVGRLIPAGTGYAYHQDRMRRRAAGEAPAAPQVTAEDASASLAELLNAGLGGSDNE
Target sequence in this assay (P0A7Z4 whole entry partner): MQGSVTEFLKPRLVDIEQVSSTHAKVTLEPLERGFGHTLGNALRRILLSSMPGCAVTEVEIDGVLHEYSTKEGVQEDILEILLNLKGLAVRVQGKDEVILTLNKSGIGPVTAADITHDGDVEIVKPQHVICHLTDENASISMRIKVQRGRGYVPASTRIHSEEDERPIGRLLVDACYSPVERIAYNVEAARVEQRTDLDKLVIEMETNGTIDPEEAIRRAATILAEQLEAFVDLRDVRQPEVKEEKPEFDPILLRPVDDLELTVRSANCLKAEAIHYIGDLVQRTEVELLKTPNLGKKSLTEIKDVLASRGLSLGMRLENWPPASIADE
Target sequence in this assay (P0A800 whole entry partner): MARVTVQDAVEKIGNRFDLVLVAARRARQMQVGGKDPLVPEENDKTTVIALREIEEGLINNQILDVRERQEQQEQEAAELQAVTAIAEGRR
Target sequence in this assay (P00579 whole entry partner): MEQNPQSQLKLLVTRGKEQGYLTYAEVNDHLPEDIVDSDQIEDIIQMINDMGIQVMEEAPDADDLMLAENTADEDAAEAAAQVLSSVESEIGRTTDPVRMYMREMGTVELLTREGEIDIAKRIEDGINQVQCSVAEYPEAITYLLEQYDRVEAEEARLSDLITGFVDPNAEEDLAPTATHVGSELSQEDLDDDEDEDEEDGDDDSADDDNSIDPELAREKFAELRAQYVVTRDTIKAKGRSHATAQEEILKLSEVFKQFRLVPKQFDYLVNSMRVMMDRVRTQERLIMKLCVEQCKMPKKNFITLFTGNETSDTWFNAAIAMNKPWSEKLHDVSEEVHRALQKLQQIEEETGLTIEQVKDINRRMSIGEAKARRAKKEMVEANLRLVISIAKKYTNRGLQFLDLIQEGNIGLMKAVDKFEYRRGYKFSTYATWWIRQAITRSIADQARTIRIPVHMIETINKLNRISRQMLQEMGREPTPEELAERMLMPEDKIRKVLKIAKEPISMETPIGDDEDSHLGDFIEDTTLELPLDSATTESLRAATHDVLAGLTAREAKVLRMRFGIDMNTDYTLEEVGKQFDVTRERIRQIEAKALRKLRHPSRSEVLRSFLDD

[4] = target: T2, bacterial RNAP; conditions: cited from earlier work
[5] = system: guanine riboswitch xpt/pbuE*6U; experiment: SPRINT compound screen on guanine riboswitch; format: biochemical; conditions: 1 μM, FIG. 10
Experimental: Briefly, the transcriptional response of the guanine riboswitch xpt/pbuE*6U to 30 different compounds was measured at two different concentrations each (FIG. 9A and FIG. 10). The concentrations used were 10 μM and 1 mM for most compounds. The signal that was obtained from control experiments with the solvents DMSO or water was subtracted from all values.

[6] = system: guanine riboswitch; conditions: as low as; cited from earlier work
[7] = system: SPRINT assay without riboswitch (constitutively transcribed Cas13a target); experiment: SPRINT control screen with constitutive promoter template (PAINS identification); conditions: FIG. 9B
Experimental: The master mix was gently mixed by pipetting up and down and incubated at 37° C. for 15 minutes to allow binding of crRNA to Cas13a protein and the microwell plate was prepared by adding 3 μL of 10× ligand to the wells. The reaction was initiated by addition of rNTPs to the master mix to a concentration of 20 μM and then 27 μL of the complete master mix were added to each well and pipetted up and down to mix with the ligand in the wells. The plate was covered with an optical adhesive film to prevent evaporation of the sample while taking fluorescence measurements in a plate reader that was preheated to 37° C.

[8] = system: bacteria; conditions: cited from earlier work

T1 sequence (P04483 whole entry): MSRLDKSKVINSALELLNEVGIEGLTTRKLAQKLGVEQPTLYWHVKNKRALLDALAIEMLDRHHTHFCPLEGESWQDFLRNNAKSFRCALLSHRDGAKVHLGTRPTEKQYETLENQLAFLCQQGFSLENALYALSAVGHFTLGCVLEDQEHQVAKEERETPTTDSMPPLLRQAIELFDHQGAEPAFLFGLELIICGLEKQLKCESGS

## Cc1c2c(c(O)c3c(O)cccc13)C(=O)[C@]1(O)C(=O)C(C(N)=O)=C(O)[C@@H](N(C)C)[C@@H]1C2 [anhydrotetracycline]
[1]
  EC50: 1000 to 2500 nM
[2]
  EC50: 1900 ± 200 nM

## CO[C@H]1/C=C/O[C@@]2(C)Oc3c(C)c(O)c4c(O)c(c(/C=N/N5CCN(C)CC5)c(O)c4c3C2=O)NC(=O)/C(C)=C\C=C\[C@H](C)[C@H](O)[C@@H](C)[C@@H](O)[C@@H](C)[C@H](OC(C)=O)[C@@H]1C [rifampicin]
[3]
  IC50: 5.9 ± 0.6 nM
[4]
  Kd: 3 nM

## Nc1nc(N)c(N)c(=O)[nH]1 [2,5,6-TAP]
[5]
  transcriptional activation at low concentration: only slightly activated transcription
[6]
  concentration at which it binds the guanine riboswitch: ≥ 100 nM
[7]; 100 μM, FIG. 10
  effect on enzymatic activity of the SPRINT assay at high concentration: completely shut down enzymatic activity
[7]; constitutive promoter template
  interference with SPRINT assay (PAINS): interfering compounds
[8]
  concentration with bactericidal properties: 8 mM
